Test results reported in patent US20140017157A1, “ANTITUMOR AGENT COMPRISING CARBON DIOXIDE AS AN ACTIVE INGREDIENT” (NEOCHEMIR INC., priority 2011, published 2014).

Legend:
MFH cell line NaraH [1] = experiment: Antitumor effects (1) against the implanted tumors in nude mice (Example 1); type: in vivo
Method: An MFH cell line NaraH, which is the cell line of a malignant soft tissue tumor, was subcutaneously implanted in the back of the 10 nude mice of 5 weeks old at 12 million cells/mouse. After the implantation, body weight and tumor volume of each nude mouse were measured. The mice were divided into two groups so that the variation in tumor volumes and body weights are reduced. That is, one is carbon dioxide absorption group and the other is control group treated in the same way as carbon dioxide absorption group but without the carbon dioxide absorption treatment. A treatment was started on the 2nd day after the implantation. After anesthetizing all groups by ether inhalation, the treatment was done according to the patent document 7, that is, an absorption aid for carbon dioxide comprising 93.77% by mass of water, 5% by mass of glycerin, 0.65% by mass of carbomer, 0.15% by mass of sodium alginate, 0.15% by mass of sodium dihydrogen phosphate, 0.18% by mass of sodium hydroxide and 0.10% by mass of methylparaben was applied 2 mm thick to the dorsal skin wherein a tumor has been implanted. […] Tumor volume was calculated by the following equation: (Maximum diameter of implanted tumor mass)×(Minimum diameter of implanted tumor mass)×(Minimum diameter of implanted tumor mass)×[…]. […]

MFH cell line NaraH [2] = experiment: Antitumor effects (2) against the implanted tumors in nude mice (Example 2); type: in vivo
Method: An MFH cell line NaraH, which is the cell line of a malignant soft tissue tumor, was subcutaneously implanted in the back of the 12 nude mice of 5 weeks old at 12 million cells/mouse. After the implantation, body weight and tumor volume of each nude mouse were measured. The mice were divided into 2 groups so that the variation in tumor volumes and body weights are reduced. That is, one is carbon dioxide absorption group and the other is control group treated in the same way as carbon dioxide absorption group but without the carbon dioxide absorption treatment. The treatment according to Example 1 was started on the 3rd day after the implantation. The carbon dioxide absorption was done twice-weekly and the treatment was done for 14 days. The carbon dioxide absorption was done a total of 3 times. Tumor volume was calculated by the following equation: (Maximum diameter of implanted tumor mass)×(Minimum diameter of implanted tumor mass)×(Minimum diameter of implanted tumor mass)×½. The measurement of tumor volume was done on the 3rd, 7th, 10th and 14th day after the tumor implantation.

cell line NaraH [3] = experiment: Antitumor effects (3) against the implanted tumors in nude mice, two regimens (Example 3); type: in vivo; details: t-test
Method: (§1) An MPH cell line NaraH, which is the cell line of a malignant soft tissue tumor, was subcutaneously implanted in the back of the 20 nude mice of 5 weeks old at 12 million cells/mouse. After the implantation, body weight and tumor volume were measured. The mice were divided into the following 3 groups so that the variation in tumor volumes and body weights are reduced. The treatment according to Example 1 was started on the 3rd day after the implantation (Table 1).
(§2) The treatment was done for 16 days. Tumor volume was calculated by the following equation: (Maximum diameter of implanted tumor mass)×(Minimum diameter of implanted tumor mass)×(Minimum diameter of implanted tumor mass)×½. The measurement of tumor volume was done on the 3rd, 7th, 10th, 14th and 16th day after tumor implantation.

cell line NaraH [4] = experiment: Combined effects with a chemotherapeutic agent against the implanted tumors in nude mice (Example 4); type: in vivo; details: t-test; for tumor volume compared to the control group: adriamycin 6 mg/kg, CO2 twice-weekly; for Significance level for control group (tumor volume): P
Method: as §1, with “A cell line” for “An MPH cell line”, “of the 17 nude mice” for “of the 20 nude mice”, “tumor volume of each nude mouse were measured.” for “tumor volume were measured.”, “implantation (Table 2).” for “implantation (Table 1).”
as §2, with “9” for “16”, “7th” for “7th, 10th, 14th”, “9th” for “16th”

MDA-MB-231 = experiment: Combined effects with a chemotherapeutic agent against the implanted malignant breast carcinoma in nude mice (Example 5); type: in vivo; details: t-test; for tumor volume compared to the control group: 15th day after tumor implantation (so in the source), adriamycin 4 mg/kg; for Significance level for control group (tumor volume): P, 15th day, Table 6
Method: (§3) MDA-MB-231, a cell line of a malignant breast carcinoma, was subcutaneously implanted in the back of the 18 nude mice of 5 weeks old at 12 million cells/mouse. On the 53rd day after the implantation, body weight and tumor volume of each nude mouse were measured. The mice were divided into the following 4 groups so that the variation in tumor volumes and body weights are reduced. The treatment was done according to Example 1 (Table 5).
The starting date of the test was defined as the 0 day and each treatment was done on the 1st, 5th, 8th, 12th and 15th day. Tumor volume was calculated by the following equation: (Maximum diameter of implanted tumor mass)×(Minimum diameter of implanted tumor mass)×(Minimum diameter of implanted tumor mass)×½. The measurement of tumor volume was done on the 8th and 15th day after tumor implantation. The measurement of body weights of the nude mice as an indication of a side effect was done on the 8th and 15th day after tumor implantation.

[5] = Body weight of tumor-bearing nude mice as an indication of a side effect (Example 5); type: in vivo; details: FIG. 12; for weight reduction as an indicator of a side effect compared to the control group: adriamycin 4 mg/kg
Method: as §3, with “5). […] The starting date of the test was defined as the 0 day and each treatment was done on the 1st, 5th, 8th, 12th and 15th day. Tumor volume was calculated by the following equation: (Maximum diameter of implanted tumor mass)×(Minimum diameter of implanted tumor mass)×(Minimum diameter of implanted tumor mass)×½. The measurement of tumor volume was done on the 8th and 15th day after tumor implantation. The measurement of body weights of the nude mice as an indication of a side effect was done on the 8th and 15th day after tumor implantation.” for “5).”

[6] = test system: breast carcinoma cell line MDA-MB-231; experiment: Antitumor effects (4) of a single dose against the implanted tumors in nude mice (Example 7); type: in vivo; details: 3rd day after starting of the treatment; single treatment (CO2 10 minutes; adriamycin 3 mg/kg); FIG. 14
Method: (§4) A breast carcinoma cell line MDA-MB-231, which is […], was subcutaneously implanted in the back of the 23 nude mice of 5 weeks old at 20 million cells/mouse. On the 18th day after the implantation, body weight and tumor volume of each nude mouse were measured. The mice were divided into the following 4 groups so that the variation in tumor volumes and body weights are reduced. The treatment was done according to Example 1 (Table 8), but only once.
Tumor volume was calculated by the following equation: (Maximum diameter of implanted tumor mass)×(Minimum diameter of implanted tumor mass)×(Minimum diameter of implanted tumor mass)×½. The measurement of tumor volume was done on the 3rd day after starting of the treatment.

[7] = Body weight as an indicator of the side effect after a single dose (Example 7); type: in vivo, nude mice; details: single treatment (CO2 10 minutes; adriamycin 3 mg/kg); FIG. 15
Method: as §4

cell line LM-8 = experiment: Effects against the implanted highly lung-metastatic tumors in nude mice (Example 8); type: in vivo
Method: A cell line LM-8, which is the cell line of a highly lung-metastatic tumor, was subcutaneously implanted in the back of the 11 nude mice of 5 weeks old at 1 million cells/mouse. On the 3rd day after the implantation, body weight and tumor volume of each nude mouse were measured. The mice were divided into two groups so that the variation in tumor volumes and body weights are reduced. That is, one is carbon dioxide absorption group (6 mice) and the other is control group (5 mice) treated in the same way as the carbon dioxide absorption group but without the carbon dioxide absorption treatment. The treatment according to Example 1 was started on the 3rd day after the implantation. The carbon dioxide absorption was done three times-weekly and the treatment was done for 14 days. The carbon dioxide absorption was done a total of 6 times. Tumor volume was calculated by the following equation: (Maximum diameter of implanted tumor mass)×(Minimum diameter of implanted tumor mass)×(Minimum diameter of implanted tumor mass)×½. The measurement of tumor volume was done on the 3rd, 7th, 10th, 14th, 17th and 21st day after the tumor implantation. On the 21st day after the tumor implantation, a lung of each mouse was isolated and the lung weight was measured. The cross-sections of the lung, where the metastasized tumor have been stained by hematoxylin and eosin, were chosen at random and a proportion of the stained area in the cross-section was analyzed by using an image analyzing software ImageJ to obtain the lung metastasis rate of the tumor.

[8] = 14 days treatment, twice-weekly CO2 absorption
[9] = 7th day after tumor implantation
[10] = 9th day after tumor implantation
[11] = 7th day after tumor implantation, Table 3
[12] = 9th day after tumor implantation, Table 4

SMILES | tumor volume compared to the control group (cell line NaraH [4]; [9]) | tumor volume compared to the control group (cell line NaraH [4]; [10]) | Significance level for control group (tumor volume) (cell line NaraH [4]; [11]) | Significance level for control group (tumor volume) (cell line NaraH [4]; [12]) | tumor volume compared to the control group (MDA-MB-231) | Significance level for control group (tumor volume) (MDA-MB-231) | weight reduction as an indicator of a side effect compared to the control group [5] | tumor volume relative to initial volume [6] | body weight reduction as an indicator of the side effect [7] | other results
O=C=O [carbon dioxide] | statistically significantly reduced | statistically significantly reduced | P < 0.001 | P < 0.05 | statistically significantly reduced | P < 0.001 | significant weight reduction was not found | reduced to two-thirds of initial volumes | not observed | tumor volume compared to the control group (MFH cell line NaraH [1]; 16th day after tumor implantation, transdermal CO2 absorption 10 minutes, twice-weekly, total of 4 times, t-test, FIG. 1): statistically significantly reduced; deaths during the experiment period (MFH cell line NaraH [1]; [8]): no deaths; tumor volume compared to the control group (MFH cell line NaraH [2]; 14th day after tumor implantation, twice-weekly, total of 3 times, t-test, FIG. 2): statistically significantly reduced; deaths during experimental period (MFH cell line NaraH [2]; [8]): no deaths; tumor volume compared to the control group (cell line NaraH [3]; group of 5 times-weekly administration early in treatment (5 consecutive days from first day), FIG. 4): statistically significantly reduced; tumor volume compared to the control group (cell line NaraH [3]; group of twice-weekly administration, treatment 16 days, FIG. 3): statistically significantly reduced; lung weights compared to the control group (cell line LM-8; 21st day after tumor implantation, CO2 three times-weekly, total of 6 times, t-test, FIG. 16): statistically significantly reduced; lung metastasis rates compared to the control group (cell line LM-8; 21st day after tumor implantation, proportion of stained area in lung cross-section, t-test, FIG. 17): statistically significantly reduced; significance level (P) of lung weight reduction compared to the control group (cell line LM-8; 21st day, t-test, FIG. 16): < 0.05; significance level (P) of lung metastasis rate reduction compared to the control group (cell line LM-8; 21st day, t-test, FIG. 17): < 0.05; deaths during the experiment period (cell line LM-8; CO2 three times-weekly for 14 days): no deaths; subcutaneously-implanted tumor volumes compared to the control group (cell line LM-8; CO2 three times-weekly, total of 6 times, t-test, FIG. 18): statistically significantly reduced; significance level (P) of subcutaneously-implanted tumor volume reduction compared to the control group (cell line LM-8; t-test, FIG. 18): < 0.05
COc1cccc2c1C(=O)c1c(O)c3c(c(O)c1C2=O)C[C@@](O)(C(=O)CO)C[C@@H]3O[C@H]1C[C@H](N)[C@H](O)[C@H](C)O1 [chemotherapeutic agent, adriamycin, reference compound] | statistically significantly reduced | statistically significantly reduced | P < 0.005 | P < 0.05 | statistically significantly reduced | P < 0.005 | statistically significant | not changed | reduced | significance level (P) of weight reduction compared to the carbon dioxide-alone group [5]: < 0.05; weight reduction compared to the carbon dioxide-alone group [5]: Significant weight reduction was found
